The target of assay [1] is T1, Heat shock factor protein 1 (Mus musculus, UniProt P38532).
T1 sequence (P38532 whole entry): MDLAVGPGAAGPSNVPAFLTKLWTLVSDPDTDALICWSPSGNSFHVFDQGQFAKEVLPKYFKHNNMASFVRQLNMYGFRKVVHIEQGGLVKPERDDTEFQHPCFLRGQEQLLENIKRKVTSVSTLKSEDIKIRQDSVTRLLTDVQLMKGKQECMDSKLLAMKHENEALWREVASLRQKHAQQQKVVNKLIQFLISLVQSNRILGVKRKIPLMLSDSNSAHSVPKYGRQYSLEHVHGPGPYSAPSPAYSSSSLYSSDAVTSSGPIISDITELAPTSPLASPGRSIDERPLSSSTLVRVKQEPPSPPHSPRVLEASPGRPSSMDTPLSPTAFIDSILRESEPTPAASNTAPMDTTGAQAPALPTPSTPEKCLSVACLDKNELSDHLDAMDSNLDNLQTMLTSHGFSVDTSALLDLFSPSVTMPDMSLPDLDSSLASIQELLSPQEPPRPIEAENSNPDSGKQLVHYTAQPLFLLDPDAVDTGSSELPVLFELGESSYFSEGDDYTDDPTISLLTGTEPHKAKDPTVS
The experiment in a line: enhancement of HSF1-driven luciferase signal – cell-based, NIH3T3, luminescence, dose retest, confirmation (AID 435004).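 Further: stress induced by proteasome inhibitor MG132 added 30 min after compound; luciferase reporter driven by HSF1 response element in NIH3T3 cells; actives raise luminescence as potentiators of the MG132 stress response.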 It is filed as functional.

The nature of assay [2]: reduction of Shn3 3'UTR-driven luciferase in osteoblasts – cell-based, Clone20 osteoblasts, firefly luciferase, cherry-picked, dose response (AID 624132).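 Further: firefly luciferase luminescence from reporter carrying the Shn3 3'UTR in osteoblasts.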 It is filed as functional.
Assay [3] can be described thus: loss of viability in HepG2 cells – cell-based, CellTiter-Glo, cherry-picked, cytotoxicity control for Shn3 inhibitor project, dose response (AID 624134). It is filed as functional. A general note: ATP-based viability assays read luminescence as a measure of living cells.
Assay [4] in a line: non-specific 3'UTR reporter inhibition in Clone20-Shn3RL – cell-based, Renilla luciferase, cherry-picked, counter-screen for Shn3 inhibitor project, dose response (AID 624133). The class given is functional.
Assay [5] has as its target T2, Ubiquitin-conjugating enzyme E2 N (Homo sapiens, UniProt P61088).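 Further: Dose-response confirmation in a TR-FRET assay detecting UBC13-driven polyubiquitin chain formation, inhibition measured.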
T2 sequence (P61088 whole entry): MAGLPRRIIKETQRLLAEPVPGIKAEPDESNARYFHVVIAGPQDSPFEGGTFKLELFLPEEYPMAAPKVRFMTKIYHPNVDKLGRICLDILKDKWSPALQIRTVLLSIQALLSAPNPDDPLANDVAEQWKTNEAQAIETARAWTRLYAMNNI
The class given is functional.

A further assay addresses T3, Protein RecA (Mycobacterium tuberculosis, UniProt P9WHJ3).
T3 sequence (P9WHJ3 whole entry): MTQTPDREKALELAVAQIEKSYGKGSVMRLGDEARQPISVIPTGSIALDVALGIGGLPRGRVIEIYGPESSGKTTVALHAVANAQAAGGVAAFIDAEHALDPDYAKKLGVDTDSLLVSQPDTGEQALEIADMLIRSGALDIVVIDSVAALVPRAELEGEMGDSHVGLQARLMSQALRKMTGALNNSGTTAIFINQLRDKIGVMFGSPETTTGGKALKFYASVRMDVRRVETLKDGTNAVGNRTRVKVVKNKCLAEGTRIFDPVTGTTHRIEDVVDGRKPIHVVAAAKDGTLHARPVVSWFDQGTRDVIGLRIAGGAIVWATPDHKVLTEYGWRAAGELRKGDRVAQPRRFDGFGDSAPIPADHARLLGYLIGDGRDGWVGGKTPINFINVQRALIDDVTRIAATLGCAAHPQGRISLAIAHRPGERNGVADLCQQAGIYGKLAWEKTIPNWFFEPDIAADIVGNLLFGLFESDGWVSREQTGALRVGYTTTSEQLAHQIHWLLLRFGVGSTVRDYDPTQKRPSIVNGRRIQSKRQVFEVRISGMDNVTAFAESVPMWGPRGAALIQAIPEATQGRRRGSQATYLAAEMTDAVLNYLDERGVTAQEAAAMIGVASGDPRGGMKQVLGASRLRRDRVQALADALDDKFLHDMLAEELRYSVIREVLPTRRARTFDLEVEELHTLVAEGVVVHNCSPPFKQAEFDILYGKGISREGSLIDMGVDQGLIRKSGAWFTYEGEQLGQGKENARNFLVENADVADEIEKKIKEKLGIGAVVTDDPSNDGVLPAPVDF
The experiment in a line: Fluorescence Cell-Free Homogeneous Dose Retest to Identify Inhibitors of RecA-Intein Splicing Activity. [Related pubchem assays (depositor defined):AID2097, AID2223, AID489010, AID492950]. It is filed as functional.

Assay [6] concerns the target T4, Replicative DNA helicase DnaB (Mycobacterium tuberculosis, UniProt P9WMR3).
T4 sequence (P9WMR3 whole entry): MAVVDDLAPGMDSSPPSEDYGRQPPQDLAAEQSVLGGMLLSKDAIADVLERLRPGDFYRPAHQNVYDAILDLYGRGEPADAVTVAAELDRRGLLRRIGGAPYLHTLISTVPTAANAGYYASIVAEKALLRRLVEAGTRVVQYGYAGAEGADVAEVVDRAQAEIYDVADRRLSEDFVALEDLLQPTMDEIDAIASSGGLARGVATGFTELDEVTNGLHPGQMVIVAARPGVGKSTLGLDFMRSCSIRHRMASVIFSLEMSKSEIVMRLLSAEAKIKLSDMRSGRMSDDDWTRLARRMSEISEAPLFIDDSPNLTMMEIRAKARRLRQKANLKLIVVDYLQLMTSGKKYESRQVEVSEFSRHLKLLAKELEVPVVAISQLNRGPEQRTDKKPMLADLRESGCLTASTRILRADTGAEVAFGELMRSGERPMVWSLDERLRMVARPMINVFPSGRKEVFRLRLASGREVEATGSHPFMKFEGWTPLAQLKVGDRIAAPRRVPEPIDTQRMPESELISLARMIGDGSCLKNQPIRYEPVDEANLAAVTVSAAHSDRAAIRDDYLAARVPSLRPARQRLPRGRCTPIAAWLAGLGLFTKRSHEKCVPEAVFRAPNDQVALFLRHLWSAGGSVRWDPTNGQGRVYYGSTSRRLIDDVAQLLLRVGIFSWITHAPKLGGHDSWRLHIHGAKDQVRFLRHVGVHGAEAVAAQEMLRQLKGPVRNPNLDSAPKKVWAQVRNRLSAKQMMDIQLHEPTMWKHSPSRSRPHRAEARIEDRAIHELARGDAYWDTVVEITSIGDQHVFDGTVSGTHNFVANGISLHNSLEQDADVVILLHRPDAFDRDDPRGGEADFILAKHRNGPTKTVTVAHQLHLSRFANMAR
The experiment in a line: DnaB intein splicing inhibitors, dose response, biochemical, cell-free fluorescence (AID 449749). It is filed as functional.

A short description of assay [7]: cells. It is filed as functional, cell-based.
The nature of assay [8]: cells. The class given is functional, cell-based. This is another data set of the same source.
The target of another assay is Cytochrome P450 3A4 (Homo sapiens, UniProt P08684).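 Further: CYP3A4 tested as one member of a cytochrome P450 panel screen.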
Another assay deals with Cytochrome P450 2D6 (Homo sapiens, UniProt P10635).
A short description of assay [9]: viability of PTEN-deleted HCT116 cells – cell-based, HCT116 PTEN knockout, dose response (AID 1047).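 Further: HCT116 colon tumor cells with PTEN knocked out; cells exposed to compound for 60 hours before readout; potency for loss of cell viability measured by luminescence.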 The class given is functional.
Assay [10] in a line: viability of uninfected HEp-2 cells – cell-based, HTS, cytotoxicity control for RSV inhibitor project, dose response (AID 2410). As to conditions: human respiratory syncytial virus. It is filed as functional.
Assay [11] in a line: viability of HCT116 lacking mutant beta-catenin – cell-based, human colon tumor, dose response (AID 1045).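 Further: HCT116 colon tumor cells with beta catenin knocked out; cells exposed to compound for 60 hours.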 It is filed as functional.
The nature of assay [12]: Luminescence Cell-Based Dose Retest to Confirm Inhibitors of Cancer Stem Cells. [Related pubchem assays (depositor defined):AID2717, AID2721]. It is filed as functional. As to conditions: Homo sapiens.
The subject of a further assay is INS1. The experiment in a line: INS-1E survival protection against cytokine death – cell-based, luminescence, retest, dose response (AID 449756).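 Further: cell death triggered by IL-1 beta plus TNF-alpha plus IFN-gamma mixture; protective hits raise ATP signal compared with cytokine alone wells.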 It is filed as functional. As to conditions: Rattus norvegicus.
A short description of assay [13]: Trypanosoma cruzi growth suppression in host cells – NIH3T3 host cells, beta-gal luminescence, confirmation (AID 2044).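 Further: intracellular parasites grown in NIH/3T3 mouse fibroblasts as host cells; luminescent beta-galactosidase reporter signal from transgenic T. cruzi replicating inside host cells; inhibitors lower the luminescence signal.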 The class given is functional, cell-based.
A short description of assay [14]: NIH3T3 cell viability loss – ATP luminescence, mouse fibroblasts, counter-screen, dose response (AID 2010).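 Further: cells exposed to compound for about 90 hours before reading.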 The class given is functional, cell-based. (In general: A counterscreen serves to expose hits that act by an unwanted route or on another target.)
The nature of assay [15]: Luminescence Cell-Based Dose Response HTS to Identify Inhibitors of 5'UTR Stem-Loop Driven Prion Protein mRNA Translation in H4 Neuroglioblastoma Cells. [Related pubchem assays: 1827 (Project Summary), 1813 (Primary HTS)]. The class given is functional.
Assay [16] can be described thus: luciferase reporter signal suppression in cells – H4 neuroglioma cells, luminescence, dose response (AID 1990). It is filed as functional, cell-based.
In assay [17] the target is T1, Heat shock factor protein 1. Put plainly: decrease of HSF1-responsive luciferase luminescence – cell-based, NIH3T3, dose retest, confirmation (AID 2382).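 Further: NIH3T3 fibroblasts with HSF1-driven luciferase reporter stressed by proteasome inhibitor MG132; luminescence from HSF1-driven luciferase expression after 8 hours of MG132 stress.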 It is filed as functional.

Molecules are shown by their SMILES. Calls of active or inactive are those of the source. Some results are limits rather than exact numbers.

Cytochrome P450 2D6, sequence (P10635 whole entry): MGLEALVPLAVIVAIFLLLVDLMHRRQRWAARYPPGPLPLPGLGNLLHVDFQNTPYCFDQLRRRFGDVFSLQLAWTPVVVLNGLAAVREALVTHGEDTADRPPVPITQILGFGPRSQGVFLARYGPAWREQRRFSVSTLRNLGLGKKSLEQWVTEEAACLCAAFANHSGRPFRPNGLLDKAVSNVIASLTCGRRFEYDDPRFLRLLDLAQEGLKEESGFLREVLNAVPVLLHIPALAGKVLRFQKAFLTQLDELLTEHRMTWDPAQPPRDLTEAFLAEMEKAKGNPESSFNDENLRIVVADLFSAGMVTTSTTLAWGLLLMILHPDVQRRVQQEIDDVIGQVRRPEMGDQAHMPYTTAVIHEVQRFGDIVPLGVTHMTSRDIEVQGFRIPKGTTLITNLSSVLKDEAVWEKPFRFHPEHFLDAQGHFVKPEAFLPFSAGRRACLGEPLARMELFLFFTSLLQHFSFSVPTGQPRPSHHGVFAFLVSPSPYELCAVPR
Cytochrome P450 3A4, sequence (P08684 whole entry): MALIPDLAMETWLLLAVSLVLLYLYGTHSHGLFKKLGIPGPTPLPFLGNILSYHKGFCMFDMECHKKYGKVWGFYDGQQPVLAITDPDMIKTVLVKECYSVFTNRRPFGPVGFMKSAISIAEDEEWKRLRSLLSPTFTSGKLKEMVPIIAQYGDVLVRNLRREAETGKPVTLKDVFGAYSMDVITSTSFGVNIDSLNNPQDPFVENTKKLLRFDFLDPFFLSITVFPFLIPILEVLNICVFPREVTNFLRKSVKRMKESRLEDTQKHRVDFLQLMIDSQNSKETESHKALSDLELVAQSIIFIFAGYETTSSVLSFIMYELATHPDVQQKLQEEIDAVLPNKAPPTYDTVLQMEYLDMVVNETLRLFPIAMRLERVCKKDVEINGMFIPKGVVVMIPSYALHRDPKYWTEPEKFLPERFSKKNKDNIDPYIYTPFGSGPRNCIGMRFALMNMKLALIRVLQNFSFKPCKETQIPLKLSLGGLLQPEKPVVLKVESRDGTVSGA

Turning to `Cc1ccc2nnn(Cc3cccc(C(C)(C)C)c3O)c2c1`, the EC50 – broadly, the concentration giving half of the maximal effect – in assay [1] was > 260 µM (inactive). Also, the AC50 (as a rule, the midpoint of the concentration-response curve, whichever way the signal moves) in assay [2] is 5.44 µM (active); in assay [3], 59.3 µM (active); in assay [4] it was 7.31 µM (active).

Regarding `CN(CC(=O)Nc1cccc(S(=O)(=O)N2CCOCC2)c1)CC(=O)Nc1ccc(Cl)c(C(F)(F)F)c1`, the AC50 in assay [2] was 2.4 µM (active); in [3], 56.7 µM (active); in [4], 6.89 µM (active).

On to `C=C(C)CN=C(S)N=Nc1c(O)[nH]c2ccc([N+](=O)[O-])cc12`, for which the IC50 (commonly the concentration that inhibits the measured activity by half) in assay [5] is > 20 µM (inactive). In addition, the EC50 on Protein RecA is 151 µM (inconclusive). In addition, the AC50 in assay [6] is 52.8 µM (active).

Regarding `O=C(NNC(=O)C(O)(c1ccccc1)c1ccccc1)C1CC1`, the EC50 in the assay “cells [7]” and in the assay “cells [8]” was > 350 µM (not active) throughout.

`CCCn1c(SCC(=O)N2CCc3ccccc3C2)nc2c1c(=O)n(C)c(=O)n2C`: the EC50 in the assay “cells [7]” and in the assay “cells [8]” was > 350 µM (not active) each time.

Regarding `Cc1cccc(NC(S)=Nc2ccc(Br)cc2)c1`, the AC50 on Cytochrome P450 3A4 is 25.1 µM (inconclusive); on Cytochrome P450 2D6, 8.91 µM (inconclusive).

On to `CC(C)(C)NC(=O)CN(C(=O)Cn1nnc(-c2ccc(Cl)cc2)n1)C1CCN(Cc2ccccc2)CC1`, for which the EC50 was 41.4 µM (active) in [9] and 37.9 µM (active) in [11]. In assay [10], the CC50 – broadly, the concentration giving 50% cytotoxicity – was 25.7 µM (active).

Turning to `Cc1ccc(C)c(NC(S)=NC(NC(=O)Cc2cccc3ccccc23)C(Cl)(Cl)Cl)c1` (stereo unspecified), the EC50 was 13.9 µM (active) in assay [9] and 15.5 µM (active) in assay [11]. Also, the AC50 in [12] was 0.861 µM (active); in the assay on INS1, 4.16 µM (active).

With `O=C(NC12CC3CC(CC(C3)C1)C2)C12CC3CC(C1)CC(n1cnc(Cl)n1)(C3)C2`, the AC50 was 14.1 µM (inconclusive) on Cytochrome P450 3A4 and 11.2 µM (inconclusive) on Cytochrome P450 2D6.

On to `CCOC(=O)c1c(NC(=O)CSc2nc3cc(Cl)ccc3c(=O)n2Cc2ccco2)sc(C(=O)N(C)C)c1C`, for which the EC50 was 7.33 µM (active) in assay [1]; 6.8 µM (active) in [9]; 12.2 µM (active) in assay [11]; 0.999 µM (active) in [13]; > 60 µM (inconclusive) in assay [14].

As to `COc1ccc(/N=c2\oc3ccc(OC)cc3cc2-c2nc3ccccc3[nH]2)cc1`, the EC50 was 3.77 µM (active) in assay [9] and 13 µM (active) in [11].

In the case of `CNC(=O)C1CC(=O)N(c2ccc(OCC(=O)N3CCCC3)cc2)C1` (stereo unspecified), the results for the EC50 (in assay [1]; in “cells [7]”; in “cells [8]”) were > 260 µM (inactive), > 350 µM (not active) and > 350 µM (not active), respectively.

With `Cc1ccc(S(=O)(=O)c2c(N)n(Cc3ccco3)c3nc4ccccc4nc23)cc1C`, the EC50 in [9] was 18.4 µM (active); in assay [11], 20.1 µM (active).

For the molecule `O=C(NCc1ccc2c(c1)OCO2)c1nc(S(=O)(=O)Cc2ccccc2F)ncc1Cl`, the AC50 was 5.02 µM (active) in assay [12]; 5.19 µM (active) in assay [2]; 31.1 µM (active) in assay [3]; 2.6 µM (active) in assay [6]; 5.92 µM (active) in [4]. Further, the EC50 on Protein RecA was 3.25 µM (active).

`O=C(c1ccco1)N1CCC[C@@]2(CCN(c3ncccn3)C2)C1`: the AC50 on Cytochrome P450 2D6 is 25.1 µM (inconclusive).

Consider `O=C(Nc1ccc(Br)cc1F)c1ccc2c(c1)OCCO2`, for which the EC50 in assay [15] was 10.8 µM (active).

Consider `COc1ccc(CN(C)CC(=O)Nc2ccc(SC(F)F)cc2)cc1OC`, for which the concentration giving a half-maximal response (EC50) in the assay “cells [7]” and in “cells [8]” was > 350 µM (not active) each time.

On to `COc1ccc(CNc2ccnc(-c3ccccc3Cl)n2)c(OC)c1`, for which the AC50 at Cytochrome P450 2D6 was 39.8 µM (inconclusive).

Take `Cc1cc(C)n(-c2nnc(C)n2/N=C/c2ccccc2OCc2ccccc2Cl)n1`: the AC50 at Cytochrome P450 2D6 was 28.2 µM (inconclusive).

Turning to `CCC(CC)NC(=O)c1cc2c(C)nn(Cc3ccccc3Cl)c2s1`, the values for the EC50 in assay [16] and in assay [15] were 11.7 µM (active) and > 120 µM (not active), respectively.

In the case of `CCOC(=O)c1cc2sccc2n1CC(=O)Nc1ccc(OC)cc1`, the EC50 in assay [17] is recorded as > 195 µM (not active); in the assay “cells [7]” it was > 350 µM (not active); in “cells [8]”, > 350 µM (not active).

Turning to `CN(CC(=O)Nc1ccc(S(=O)(=O)N2CCCC2)cc1)CC(=O)Nc1cccc(F)c1`, the EC50 in “cells [7]” and in the assay “cells [8]” was > 350 µM (not active) throughout.

The record behind these values is ChEMBL document CHEMBL1201862, “PubChem BioAssay data set” (2004).
